Like-named read-outs stand apart in the source and are kept apart here.
How the values were obtained:
[1] = molecular target: human recombinant butyrylcholinesterase (Homo sapiens (Human), UniProt P06276); test: biochemical; assay type: biochemical
[2] = molecular target: Human recombinant acetylcholinesterase (Homo sapiens (Human), UniProt P22303); test: biochemical
Male Wistar rats = assay type: in vivo; conditions: rat

human recombinant butyrylcholinesterase, sequence (P06276 29-602 limits assumed): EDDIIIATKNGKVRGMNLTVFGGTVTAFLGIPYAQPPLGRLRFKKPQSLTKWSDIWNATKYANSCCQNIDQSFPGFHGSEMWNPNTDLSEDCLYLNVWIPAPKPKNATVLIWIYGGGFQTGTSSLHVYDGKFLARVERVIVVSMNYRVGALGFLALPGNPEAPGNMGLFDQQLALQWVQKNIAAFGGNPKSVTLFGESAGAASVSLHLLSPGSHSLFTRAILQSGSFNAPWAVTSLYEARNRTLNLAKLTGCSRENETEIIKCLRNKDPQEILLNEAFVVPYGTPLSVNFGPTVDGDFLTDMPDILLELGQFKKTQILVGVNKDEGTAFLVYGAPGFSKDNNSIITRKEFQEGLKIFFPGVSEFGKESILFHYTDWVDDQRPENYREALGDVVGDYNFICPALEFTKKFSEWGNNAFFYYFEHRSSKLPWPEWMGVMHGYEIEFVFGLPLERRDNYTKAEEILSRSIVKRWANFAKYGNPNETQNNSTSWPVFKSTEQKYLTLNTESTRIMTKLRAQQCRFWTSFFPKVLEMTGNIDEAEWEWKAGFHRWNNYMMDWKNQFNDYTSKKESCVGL
Human recombinant acetylcholinesterase, sequence (P22303 32-614 limits assumed): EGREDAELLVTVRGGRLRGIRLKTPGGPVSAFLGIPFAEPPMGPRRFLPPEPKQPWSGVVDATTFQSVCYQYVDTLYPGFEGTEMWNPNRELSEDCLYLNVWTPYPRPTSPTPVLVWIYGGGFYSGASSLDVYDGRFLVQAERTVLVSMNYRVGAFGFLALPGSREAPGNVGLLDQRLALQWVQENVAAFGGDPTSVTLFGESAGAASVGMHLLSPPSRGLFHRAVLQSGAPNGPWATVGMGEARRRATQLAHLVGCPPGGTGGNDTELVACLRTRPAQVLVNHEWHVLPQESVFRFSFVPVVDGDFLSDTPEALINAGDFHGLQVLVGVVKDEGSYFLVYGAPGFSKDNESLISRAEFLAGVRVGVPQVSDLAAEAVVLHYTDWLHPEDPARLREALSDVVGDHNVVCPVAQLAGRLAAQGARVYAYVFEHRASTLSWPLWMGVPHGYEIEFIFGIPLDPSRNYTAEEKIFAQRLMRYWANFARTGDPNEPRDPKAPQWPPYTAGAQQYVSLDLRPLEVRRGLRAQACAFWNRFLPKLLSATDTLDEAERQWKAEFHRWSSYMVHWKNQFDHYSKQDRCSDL

Row | SMILES | IC50 [1] | BCHE inhibitory potential in comparison to the current drugs (galantamine, rivastigmine, donepezil) [1] | IC50 [2] | Reverse (%) (percentage antagonism of scopolamine-induced latency deficit) (Male Wistar rats; in vivo) | other results
1 | COc1cc(C(C)N(C)C)c2c(c1)oc(=O)c1ccccc12 (racemic) [FAR-01-1, (±)-1-(1-(dimethylamino)ethyl)-3-methoxy-6H-benzo[c]chromen-6-one] | 24.7 µM |  |  |  | 
2 | CCN(C)C(=O)Oc1cc(C(C)N(C)C)c2c(c1)oc(=O)c1ccccc12 (racemic) [FAR-01-1CA, (±)-1-(1-(dimethylamino)ethyl)-6-oxo-6H-benzo[c]chromen-3-yl ethyl(methyl)carbamate] | 8.5 µM | at least comparable and/or better inhibitory potential | > 40 µM |  | selectivity BCHE versus ACHE [1]: possess selectivity to inhibit the BCHE
3 | CC(c1cc(O)cc2oc(=O)c3ccccc3c12)N(C)C (racemic) [FAR-01-1OH, (±)-1-(1-(dimethylamino)ethyl)-3-hydroxy-6H-benzo[c]chromen-6-one] | > 40 µM |  | 33.1 µM |  | 
4 | COc1cc(C(C)N(C)C)cc2oc(=O)c3ccccc3c12 (racemic) [FAR-01-2, (±)-3-(1-(dimethylamino)ethyl)-1-methoxy-6H-benzo[c]chromen-6-one] | 21.1 µM |  | 2.8 µM | 71% | 
5 | CCN(C)C(=O)Oc1cc(C(C)N(C)C)cc2oc(=O)c3ccccc3c12 (racemic) [FAR-01-2CA, (±)-3-(1-(dimethylamino)ethyl)-6-oxo-6H-benzo[c]chromen-1-yl ethyl(methyl)carbamate] | 12.7 µM | at least comparable and/or better inhibitory potential |  |  | Reverse (%) (percentage antagonism of scopolamine-induced latency deficit) (Male Wistar rats; compound 1 mg/kg oral, scopolamine 1 mg/kg i.p., latency measured for 5 minutes): 53%
6 | CC(c1cc(O)c2c(c1)oc(=O)c1ccccc12)N(C)C (racemic) [FAR-01-2OH, (±)-3-(1-(dimethylamino)ethyl)-1-hydroxy-6H-benzo[c]chromen-6-one] | 4.2 µM | at least comparable and/or better inhibitory potential | 18.9 µM | 49% | 
7 | CC(c1ccc2c(c1)oc(=O)c1ccccc12)N(C)C (racemic) [FAR-02-2RS, (±)-3-(1-(dimethylamino)ethyl)-6H-benzo[c]chromen-6-one] | 17.9 µM |  | 10.9 µM | 70% | 
8 | COc1cc2c(cc1OC)C(=O)C(CC1CCN(Cc3ccccc3)CC1)C2 (stereo not shown) [Donepezil, reference compound] |  |  |  | 52% | 
9 | C[C@@H](c1ccc2c(c1)oc(=O)c1ccccc12)N(C)C [FAR-02-2S, (S)-3-(1-(dimethylamino)ethyl)-6H-benzo[c]chromen-6-one] |  |  |  | 71% | IC50 ([1]; read-out: BCHE Inhibitory Activity IC50): 16.2 µM; IC50 ([2]; read-out: ACHE Inhibitory Activity IC50): 7.9 µM
10 | CCN(C)C(=O)Oc1cccc([C@H](C)N(C)C)c1 [Rivastigmine, reference compound] |  |  |  | 85% | 

Source: patent publication US9586925B2 (priority 2013, dated 2017)
